Experimental data as given in patent US8293211B2, “CB1 receptor antagonists and uses thereof” (MAKScientific, LLC, priority 2007, dated 2012).

Experiments:
hCB1 = target: T1, hCB1 (Homo sapiens, UniProt P21554); experiment: Forskolin-stimulated cAMP assay; format: cell-based
T1 construct: expressed in transfected cells; host or cells: HEK293
Experimental: Intracellular cAMP levels were measured with a competitive protein-binding assay using intact HEK293 cells expressing hCB1 or hCB2 and a cAMP immunoassay kit from Sigma (St. Louis, Mo.). In short, forskolin stimulated cells were incubated with various concentrations of compound, cAMP anti-body and cAMP conjugate for 2 hours at ambient temperature. The reaction was stopped by emptying the wells followed by the addition of p-NPP substrate and incubation for 1 hour. […] The results were expressed as percent inhibition of forskolin-stimulated cAMP accumulation and EC50 curves were generated with the use of GraphPad Prism software.

Rats [1] = experiment: Taste reactivity studies (conditioned gaping, saccharin preference); format: in vivo, rat; conditions: for Mean (±SEM) saccharin preference ratio: 2-bottle preference test
Experimental: Rats were implanted with intraoral cannulae and 24 hrs prior to the surgical procedure, they were administered a prophylactic antibiotic (Derapin, 100 mg/kg, sc; Ayerst). On the day of surgery, the rats were anaesthetized with isofluorane gas and were administered Anafen (7.0 mg/kg, sc; Merial), a nonsteroidal anti-inflammatory drug (NSAID) with analgesic properties. A 3.0 cm^2 patch of fur was shaved at the back of the neck just above the scapula and the area was surgically prepared [Betadine surgical scrub (Purdue Frederick) and alcohol]. A thin-walled 15-gauge stainless steel needle was inserted at the back of the neck, directed s.c., around the ear and brought out behind the first molar inside the mouth. A length of IntraMedic polyetheylene tubing with an inner diameter of 0.86 mm and an outer diameter of 1.27 mm was then run through the needle after which the needle was removed. Two circular elastic discs were placed over the tubing and drawn to the exposed skin at the back of the neck for the purpose of stabilizing the cannula. The tubing was held secure in the oral cavity by an o-ring, which was sealed behind the tubing prior to cannulation surgery. For the purposes of conditioning and testing, the cannula was connected to the infusion pump (Harvard Apparatus, South Natick, Mass.) for delivery of the solution by slipping the tubing of the cannula inside a second polyethylene tube (inner diameter 1.19 mm, outer diameter 1.70 mm) attached to the infusion pump. Two rats were subsequently removed from the study due to an ineffective cannula.
Five days after surgery and prior to conditioning (day 1), rats were individually placed in the Plexiglas taste reactivity chamber (22.5×26×20 cm) with their cannula attached to the infusion pump for fluid delivery. The rats were habituated to the taste reactivity procedure by infusing them with water for a period of 5 min at a rate of 1.0 ml/min after which they were returned to their home cage. On day 2, the rats were individually taken to the chamber for a single conditioning trial. They were intraorally infused with 0.1% saccharin solution for 5 min at a rate of 1.0 ml/min while their orofacial and somatic responses were videotaped from a mirror at a 45° angle below the chamber. Immediately after the saccharin infusion the rats were injected with the appropriate dose of Compound 3, according to random assignment: 0.0 mg/kg (vehicle; n=8), 2.0 mg/kg (n=7), 4.0 mg/kg (n=7), 8.0 mg/kg (n=8). On day 5, the animals were given a second adaptation trial with a 5-min intraoral infusion of water.
Taste reactivity testing occurred on day 6, 96 hr after conditioning. The rats were taken to the chamber and following a period of 1 min were infused with 0.1% saccharin solution over a period of 5 min (1.0 ml/min) while being videotaped. Immediately after the session, the rats were returned to their home cage. On day 7, following 15 hr of water deprivation, the rats were given a 2-bottle preference test. The rats were presented with a graduated tube containing 0.1% saccharin solution and a graduated tube containing water for a period of 120 min. The amount consumed from each bottle during the 120 min of drinking was converted to a preference score: Amount consumed of saccharin solution/amount consumed of saccharin+amount consumed of water. The taste reactivity videotapes were scored using the Observer (Noldus Information Technology, Sterling, Va.) event-recording program. The behaviors scored included the frequency of gaping, chin rubs, ingestive reactions, passive drips and activity. Gaping was defined as rapid, large-amplitude opening of the mandible with retraction of the corners of the mouth. Chin rubbings were defined as chin or mouth in direct contact with the floor or wall of the chamber and forward projections of the body. […]

Rats [2] = experiment: Operant lever pressing on FR5 schedules; format: in vivo, rat
Experimental: Following the initial training period, rats (n=8 each group) were injected with drug and then tested once a week on Thursdays. For experiments 1 and 2, Compound 3 or Compound 2, respectively were injected IP at doses of 1.0, 2.0, 4.0, or 8.0 mg/kg or vehicle. Pretreatment time for these two experiments was 30 min. For experiments 3 and 4, rats were given drug or vehicle orally 1 hour before testing. In experiment 3, rats were given vehicle or 8.0, 16.0, or 32.0 mg/kg Compound 3. In experiment 4, rats received vehicle or Compound 2 at doses of 4.0, 8.0, or 16.0 mg/kg. All doses were given in a randomized order using a repeated measures design.

CB1 receptor = CB1 receptor (Rattus norvegicus, UniProt P20272); experiment: [3H]CP55,940 competitive binding assay, CB1 (rat brain membranes); parameters: membrane preparations from rat brain; from tissue; host or cells: rat brain membranes
CB1 receptor, sequence (P20272 whole entry): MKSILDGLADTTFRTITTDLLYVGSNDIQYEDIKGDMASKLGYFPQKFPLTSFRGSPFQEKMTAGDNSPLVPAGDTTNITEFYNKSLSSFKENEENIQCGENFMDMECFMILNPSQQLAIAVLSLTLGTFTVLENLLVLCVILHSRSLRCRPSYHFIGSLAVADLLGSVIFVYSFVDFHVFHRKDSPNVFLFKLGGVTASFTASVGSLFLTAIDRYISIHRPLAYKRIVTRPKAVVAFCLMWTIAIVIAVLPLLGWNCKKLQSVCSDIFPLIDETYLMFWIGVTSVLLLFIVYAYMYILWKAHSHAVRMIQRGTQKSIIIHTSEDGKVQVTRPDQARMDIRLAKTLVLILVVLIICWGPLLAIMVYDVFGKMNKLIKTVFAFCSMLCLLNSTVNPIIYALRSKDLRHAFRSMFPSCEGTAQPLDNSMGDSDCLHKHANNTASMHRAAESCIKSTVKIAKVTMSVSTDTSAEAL
Experimental: Compounds were tested for their CB1 and CB2 receptor using membrane preparations from rat brain or HEK293 cells expressing hCB2 receptor, respectively, and [^3H]CP55,940 as previously described 1, 36-38. Stock solutions of the compounds (10 mM in DMSO) were diluted in TME buffer (50 mM Tris-HCL, 3 mM MgCl2, 100 mM NaCl, 0.2 mM EDTA, pH 7.4) with 0.1% BSA and transferred to 96 well plates containing [^3H]CP55,940 (specific activity 128 Ci/mmol; NIDA) at a final concentration of 0.76 nM. Non-specific binding was assessed in the presence of 100 nM CP55,940. The binding reaction was initiated with the addition of the respective membrane suspension (˜50 μg membrane protein) followed by incubation at 30° C. with gentle agitation in a shaking water bath for 60 minutes. […] The filter plates were washed with ice-cold wash buffer (50 mM Tris-base, 5 mM MgCl2 with 0.5% BSA) and bound radioactivity was determined using a Packard TopCount Scintillation Counter. The results were analyzed using nonlinear regression to determine the actual IC50 and the Ki values of the ligand (Prizm by GraphPad Software, Inc.). All data were in duplicate with IC50 and Ki values determined from at least two independent experiments.
The affinity of a compound for CB1 vs. CB2 is determined by the ratio of the inhibitory constants (Ki), as determined by the competitive binding assay.

T1 sequence (P21554 whole entry): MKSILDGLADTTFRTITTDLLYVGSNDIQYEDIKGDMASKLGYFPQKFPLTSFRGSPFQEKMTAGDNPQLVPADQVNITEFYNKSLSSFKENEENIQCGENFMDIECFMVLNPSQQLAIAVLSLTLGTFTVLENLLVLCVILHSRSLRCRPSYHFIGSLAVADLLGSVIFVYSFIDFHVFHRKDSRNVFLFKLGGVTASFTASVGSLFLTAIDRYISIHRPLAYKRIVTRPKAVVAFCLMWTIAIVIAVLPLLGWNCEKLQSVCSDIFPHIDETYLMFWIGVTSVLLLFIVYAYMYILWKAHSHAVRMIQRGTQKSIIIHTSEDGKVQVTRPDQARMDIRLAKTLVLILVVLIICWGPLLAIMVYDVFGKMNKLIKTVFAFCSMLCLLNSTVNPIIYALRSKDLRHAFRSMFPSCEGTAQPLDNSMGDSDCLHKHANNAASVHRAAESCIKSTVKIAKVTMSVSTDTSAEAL

change of forskolin-stimulated cAMP accumulation (hCB1; CB1 transfected HEK cells, up to concentrations of 630 nM): did not change
effect on forskolin stimulated cAMP production (hCB1; HEK293 cells transfected with human CB1 receptors): no effect
ingestion (hedonic) taste reactions, Mean±SEM (Rats [1]; 2.0 mg/kg): 10.5 (3.2)
Mean (±SEM) saccharin preference ratio (Rats [1]; 2.0 mg/kg): 0.411 (0.059)
ingestion (hedonic) taste reactions, Mean±SEM (Rats [1]; 4.0 mg/kg): 4.5 (1.5)
Mean (±SEM) saccharin preference ratio (Rats [1]; 4.0 mg/kg): 0.298 (0.074)
ingestion (hedonic) taste reactions, Mean±SEM (Rats [1]; 8.0 mg/kg): 1.3 (0.5)
Mean (±SEM) saccharin preference ratio (Rats [1]; 8.0 mg/kg): 0.088 (+0.017)
effect on chin rubbing or conditioned gaping (Rats [1]; 2.0, 4.0, 8.0 mg/kg): no significant effects
Ki (CB1 receptor; against [3H]CP55,940, rat brain membranes): 0.89 ± 0.44 nM
selectivity for CB1 versus CB2 receptors (CB1 receptor; ratio of Ki values): ~100 fold
Structure (SMILES): Cc1c(C(=O)NN2CCCCC2)nn(-c2ccc(Cl)cc2Cl)c1-c1ccc(C#CCCC#N)cc1 [Compound 3]
suppression of FR5 responding compared to vehicle (Rats [2]; IP 1.0, 2.0, 4.0, 8.0 mg/kg): significantly suppressed
ED50 (Rats [2]; Rattus norvegicus, IP, pretreatment 30 min, read-out: ED50 for the effect on FR5 responding): 0.78 mg/kg
change in lever pressing on FR5 compared to vehicle (Rats [2]; oral, 1 hour before testing (Compound 3 8.0-32.0 mg/kg; Compound 2 4.0-16.0 mg/kg)): no significant change
